Article PMC6199744, “Development of Chemical Proteomics for the Folateome and Analysis of the Kinetoplastid Folateome” (ACS Infectious Diseases, 2018)
“And” between values parts separate entries of the source, which are not always exact repeats. Equal values may be shown once. Read-outs that look alike come from different tables or passages of the source.

Test system: T. brucei lysate proteins
Assay type: binding, Trypanosoma brucei

CCCCCCOc1ccc(Cc2cnc(N)nc2N)cc1 [compound 1]
fold change - vehicle control: 0.84 and 0.54 and 0.72 and 0.9 and 0.79 | fold change - vehicle control (protein RHS6A (CZT00028360.1)): 0.94 | fold change - vehicle control (protein TB09.160.1250 HY[…], CONSERVED): 0.85 | fold change - vehicle control (protein TB09.160.3670 RIBOSOMAL PROTEIN S6, PUTATIVE): 0.92 | fold change - vehicle control (protein TB09.211.2630 60S RIBOSOMAL PROTEIN L23, PUTATIVE): 1 | fold change - vehicle control (protein TB09.211.4513 KIN[…] PROTEIN KMP-11): 0.73 | fold change - vehicle control (protein TB11.V4.0005 RIBONUCLEOSIDE-DIPHOSPHATE REDUCTASE SMALL CHAIN): 0.92 | fold change - vehicle control (protein TB11.01.0870 R[…] A, 51KDA SUBUNIT, PUTATIVE): 0.98 | fold change - vehicle control (protein TB11.01.2560 40S RIBOSOMAL PROTEIN SA, PUTATIVE): 1.02 | fold change - vehicle control (protein TB11.01.4880 HY[…], CONSERVED): 0.77 | fold change - vehicle control (protein TB11.01.7090 HY[…], CONSERVED): 0.93 | fold change - vehicle control (protein TB11.02.2510 GUANINE NUCLEOTIDE-BINDING BETA SUBUNIT-LIKE PROTEIN): 0.93 | fold change - vehicle control (protein TB11.02.4170 40S RIBOSOMAL PROTEIN S5, PUTATIVE): 1.3 | fold change - vehicle control (protein TB11.03.0250 C[…]): 1.42 | fold change - vehicle control (protein TB11.46.0009 HY[…], CONSERVED): 0.95 | fold change - vehicle control (protein TB427TMP.01.1475 40S RIBOSOMAL PROTEIN S27, PUTATIVE): 0.92 | fold change - vehicle control (protein TB427TMP.01.4280 HY[…], CONSERVED): 1.08 | fold change - vehicle control (protein TB427TMP.01.4650 HY[…], CONSERVED): 0.58 | fold change - vehicle control (protein TB427TMP.01.4810 HY[…], CONSERVED): 0.83 | fold change - vehicle control (protein TB427TMP.01.5680 HY[…], CONSERVED): 0.33 | fold change - vehicle control (protein TB427TMP.01.8390 HY[…], CONSERVED): 0.87 | fold change - vehicle control (protein TB427TMP.02.0230 HY[…], CONSERVED): 1.01 | fold change - vehicle control (protein TB427TMP.02.0460 NUCLEOPORIN): 0.92 | fold change - vehicle control (protein TB427TMP.02.1106 NUCLEOBASE/NUCLEOSIDE TRANSPORTER 8 1): 1.06 | fold change - vehicle control (protein TB427TMP.160.2050 ENDO-BETA-N-ACETYLGLUCOSAMINIDASE, PUTATIVE): 0.79 | fold change - vehicle control (protein TB427TMP.160.4310 GLUTAMATE DEHYDROGENASE): 1.16 | fold change - vehicle control (protein TB427TMP.160.4450 40S RIBOSOMAL PROTEIN S3, PUTATIVE): 1 | fold change - vehicle control (protein TB427TMP.160.4630 HY[…], CONSERVED): 0.8 | fold change - vehicle control (protein TB427TMP.160.5200 HY[…], CONSERVED): 0.67 | fold change - vehicle control (protein TB427TMP.160.5670 HY[…], CONSERVED): 0.21 | fold change - vehicle control (protein TB427TMP.211.0930 POLYADENYLATE-BINDING PROTEIN 1): 1.23 | fold change - vehicle control (protein TB427TMP.211.1750 MIT[…] PROTEIN, PUTATIVE): 0.86 | fold change - vehicle control (protein TB427TMP.211.3510 ATP-DEPENDENT DEAD/H RNA HELICASE, PUTATIVE): 0.97 | fold change - vehicle control (protein TB427TMP.211.4540 RNA-BINDING PROTEIN, PUTATIVE): 0.71 | fold change - vehicle control (protein TB427TMP.244.2840 HY[…], CONSERVED): 0.64 | fold change - vehicle control (protein TB427.01.1240 CYTIDINE TR[…], PUTATIVE): 0.67 | fold change - vehicle control (protein TB427.01.2570 COATOMER BETA SUBUNIT): 0.88 | fold change - vehicle control (protein TB427.01.3910 HY[…], CONSERVED): 0.83 | fold change - vehicle control (protein TB427.02.6240): 0.95 | fold change - vehicle control (protein TB427.04.3350 HY[…], CONSERVED): 1.02 | fold change - vehicle control (protein TB427.04.3890 ATP-DEPENDENT RNA HELICASE, PUTATIVE): 0.9 | fold change - vehicle control (protein TB427.04.4870 AMINO ACID TRANSPORTER, PUTATIVE): 0.86 | fold change - vehicle control (protein TB427.04.750 50S RIBOSOMAL PROTEIN L7AE, PUTATIVE): 0.67 | fold change - vehicle control (protein TB427.04.960 HY[…], CONSERVED): 0.68 | fold change - vehicle control (protein TB427.05.1780 HY[…], CONSERVED): 0.66 | fold change - vehicle control (protein TB427.05.3030 INTR[…] PROTEIN IFT122, PUTATIVE): 0.78 | fold change - vehicle control (protein TB427.05.4560 GUANINE DEAMINASE, PUTATIVE): 1.07 | fold change - vehicle control (protein TB427.06.2150 CELL DIVISION CYCLE PROTEIN 16, PUTATIVE): 0.92 | fold change - vehicle control (protein TB427.06.3110 PROTEIN KINASE, PUTATIVE (CRK11)): 1.03 | fold change - vehicle control (protein TB427.06.5110 DAMAGE-SPECIFIC DNA BINDING PROTEIN, PUTATIVE): 0.86 | fold change - vehicle control (protein TB427.07.2670 HY[…], CONSERVED): 0.89 | fold change - vehicle control (protein TB427.07.3040 HY[…], CONSERVED): 0.9 | fold change - vehicle control (protein TB427.07.3530 HY[…], CONSERVED): 0.96 | fold change - vehicle control (protein TB427.07.4970 GLUTAMINE SYNTHETASE, PUTATIVE): 0.89 | fold change - vehicle control (protein TB427.07.5560 GLUCOSAMINE-FRUCTOSE-6-PHOSPHATE AMINOTRANSFERASE, PUTATIVE): 0.77 | fold change - vehicle control (protein TB427.07.5890 HY[…], CONSERVED): 0.86 | fold change - vehicle control (protein TB427.07.7070 HY[…], CONSERVED): 0.72 | fold change - vehicle control (protein TB427.07.7460 HY[…], CONSERVED): 0.81 | fold change - vehicle control (protein TB427.08.1500 HY[…], CONSERVED): 0.87 | fold change - vehicle control (protein TB427.08.1840 HY[…], CONSERVED): 1.24 | fold change - vehicle control (protein TB427.08.1960 HY[…], CONSERVED): 0.78 | fold change - vehicle control (protein TB427.08.2080 HY[…], CONSERVED): 0.67 | fold change - vehicle control (protein TB427.08.3750 NUCLEOLAR PROTEIN, PUTATIVE): 0.89 | fold change - vehicle control (protein TB427.08.6390 LYSOPHOSPHOLIPASE, PUTATIVE): 0.97 | fold change - vehicle control (protein TB427.10.10610 PROTEIN TYROSINE PHOSPHATASE, PUTATIVE): 0.62 | fold change - vehicle control (protein TB427.10.1100 60S RIBOSOMAL PROTEIN L9, PUTATIVE): 1.06 | fold change - vehicle control (protein TB427.10.12740): 0.9 | fold change - vehicle control (protein TB427.10.14660 HY[…], CONSERVED): 0.83 | fold change - vehicle control (protein TB427.10.15720 […]-ATP-ASE SUBUNIT 9): 0.9 | fold change - vehicle control (protein TB427.10.2440 METACASPASE MCA4): 0.84 | fold change - vehicle control (protein TB427.10.2900 IMPORTIN BETA-1 SUBUNIT, PUTATIVE): 0.68 | fold change - vehicle control (protein TB427.10.3470 HY[…], CONSERVED): 0.78 | fold change - vehicle control (protein TB427.10.4110 60S RIBOSOMAL PROTEIN L30): 0.82 | fold change - vehicle control (protein TB427.10.4610 […]-MANNOSE SYNTHASE, PUTATIVE): 0.82 | fold change - vehicle control (protein TB427.10.5250 HY[…], CONSERVED): 0.86 | fold change - vehicle control (protein TB427.10.7410 SUCCINYL-COA LIGASE GDP-FORMING] BETA-CHAIN, PUTATIVE): 0.9 | fold change - vehicle control (protein TB927.10.12960 RAS-RELATED PROTEIN RAB-5): 0.82 | fold change - vehicle control (protein TB927.10.14800 PROTEIN KINASE, PUTATIVE): 1.18 | fold change - vehicle control (protein TB927.10.2980 […]-ATPASE SUBUNIT 11): 0.83 | fold change - vehicle control (protein TB927.10.3660 ASPARTATE AMINOTRANSFERASE): 1.14 | fold change - vehicle control (protein TB927.10.4570 […] 2): 0.72 | fold change - vehicle control (protein TB927.10.5140 PROTEIN KINASE, PUTATIVE): 0.83 | fold change - vehicle control (protein TB927.10.560 40S RIBOSOMAL PROTEINS S11, PUTATIVE): 0.94 | fold change - vehicle control (protein TB927.10.6510 CHAPERONIN HSP60, MIT[…]): 0.87 | fold change - vehicle control (protein TB927.3.1840 3-OXO-5-ALPHA-STEROID 4-DEHYDROGENASE, PUTATIVE): 1 | fold change - vehicle control (protein TB927.3.3780 TRYPAREDOXIN): 0.82 | fold change - vehicle control (protein TB927.3.740 HY[…], CONSERVED): 0.83 | fold change - vehicle control (protein TB927.4.2740 HY[…], CONSERVED): 0.74 | fold change - vehicle control (protein TB927.4.3590 T[…] 1-BETA, PUTATIVE): 0.85 | fold change - vehicle control (protein TB927.6.4320 HY[…], CONSERVED): 0.84 | fold change - vehicle control (protein TB927.7.2550 […] SUBUNIT 5): 0.7 | fold change - vehicle control (protein TB927.7.2980 HY[…], CONSERVED): 0.84 | fold change - vehicle control (protein TB927.7.7430 ATP SYNTHASE ALPHA CHAIN, MIT[…]): 0.73 | fold change - vehicle control (protein TB927.8.1990 PEROXIDOXIN): 0.74 | fold change - vehicle control (protein TB927.8.4720 AMINO ACID TRANSPORTER, PUTATIVE): 1.08 | fold change - vehicle control (protein TB927.8.890 SMALL GTP-BINDING PROTEIN RAB1, PUTATIVE): 0.93
